Entries after “also recorded” stand apart in the source; their conditions may differ.
Key:
PpIX in MKN45 cells [1] = experiment: Photobleaching inhibitory effect for PpIX produced from ALA in cells with other reductants (Example 2); assay type: cell-based; conditions: 1 mM ALA 24 h, ascorbic acid 500 μM, tocopherol 500 μM, lutein 10 μM in PBS, excitation 400 nm, fluorescence 635 nm, 0-180 s
Method: Photobleaching suppression effect for PpIX was measured for other reductants. The following were employed as the reductants. Each reductant solution was prepared by the following method and each of the prepared solutions was used as sample solvents for photobleaching measuring.
Solution supplemented with 5 μL of ascorbic acid (solvent: milli Q, concentration of supplemented solution: 100 mM) was added to 1 mL of PBS to prepare an ascorbic acid solution having a final concentration of 500 μM.
Solution supplemented with 5 μL of tocopherol (solvent: DMSO, concentration of supplemented solution: 100 mM) was added to 1 mL of PBS to prepare a tocopherol solution having a final concentration of 500 μM.
Solution supplemented with 5 μL of lutein (solvent: DMSO, concentration of supplemented solution: 2 mM) was added to 1 mL of PBS to prepare a lutein solution having a final concentration of 10 μM.
MKN45 cells were seeded in a 35 mm dish at 0.5×10^6 cells, and the culture medium on the 35 mm dish was 2 mL. Ten μL of 0.2 M ALA hydrochloride (5-aminolevulinic acid hydrochloride) solution was added to the 2 mL of culture medium in the 35 min dish to achieve the final concentration of ALA in the culture medium at 1 mM. This 35 mm dish was cultured in a 5% CO2 incubator at 37° C. for 24 hours. The cells were then washed with 1 ml of PBS, and then 1 mL of each of the reductant solutions prepared as above were added, the cells were immediately scraped off with a cell scraper, and the cells were suspended by pipetting. The fluorescence intensity at 635 nm of each of these cell suspensions under the excitation light at 400 nm was measured. The fluorescence intensity was measured from 0 seconds post irradiation of excitation light for every 10 seconds until 180 seconds post irradiation. The measurement of fluorescence intensity was performed with irradiation of the excitation light even after the 0 seconds post irradiation of excitation light.

[2] = Photobleaching inhibitory effect for porphyrins by each alkyl gallate in solution (Example 4); assay type: physicochemical; conditions: 50 mM alkyl gallate, 1 μM PpIX; for t/2 of PpIX fluorescence intensity: excitation 402 nm, 0.4 mA, pseudo-first-order
Method: The photobleaching inhibitory effect for porphyrins by gallic acids was measured with the following procedure. Methyl gallate (MeG, from Wako, Cat. No. 134-09812), butyl gallate (BuG, from Wako, Cat. No. 322-67472), n-propyl gallate (PrG, from Wako, Cat. No. 162-06832), and octyl gallate (OcG, from Wako, Cat. No. 322-56482) were employed as gallic acids. The gallic acids employed here are all compounds having a linear alkyl.
(§1) (1) In order to prepare 50 mM solutions of each alkyl gallate, 0.3 mmol of each alkyl gallate was placed in a 15 mL tube, and 6 mL of 50% glycerol PBS solution (a mixture of glycerol and PBS at a proportion of 1:1, hereinafter may be notated as “Gly+PBS” or “Gly+PBS solution”) or DMSO was added and dissolved.
(3) After dispensing 990 μL of alkyl gallate into a 2 mL vial, 10 μL of 100 μM PpIX was added (final concentration of PpIX at 1 μM).
(4) Measurement of the fluorescence spectrum was performed for each alkyl gallate+PpIX solution prepared in (3) with a simplified fluorescence measurement device. LED was employed as the light source, the wavelength of the excitation light employed was 402 nm, the output current was set at 0.4 mA, and the measurement interval was every 10 seconds until 180 seconds for measurement.
For each of the plots above in FIG. 14 and FIG. 15 when a Gly+PBS solution and a DMSO solution was employed as the solvent for gallic acid, the relative fluorescence intensity was calculated by setting the fluorescence intensity immediately post irradiation (0 seconds later) as 1, and the transition of fluorescence intensity of PpIX was plotted with the calculated relative intensity as the vertical axis as shown in FIG. 16 and FIG. 17, respectively. This transition of relative fluorescence intensity was treated as a pseudo-first-order reaction to determine the half-life, and shown in Table 2 and Table 3, respectively.

[3] = Dissolution of alkyl gallates at 50 mM in Gly+PBS or DMSO; assay type: physicochemical; conditions: for solubility in Gly+PBS solution: 0.3 mmol in 6 mL (50 mM) 50% glycerol PBS
Method: as §1

[4] = Absorption spectrum 350 nm-750 nm of alkyl gallate solutions; assay type: physicochemical; conditions: 50 mM alkyl gallate solution
Method: (2) Measurement of the absorption spectrum at 350 nm-750 nm was performed with 1000 μL of each alkyl gallate solution prepared in (1).
Since the fluorescent substance protoporphyrin IX (PpIX) has a sharp absorbance at around 400 nm, and a light at around 400 nm is employed as the excitation light, it was deemed possible that excitation of PpIX could be inhibited when employing butyl gallate.

PpIX in MKN45 cells [5] = experiment: Photobleaching inhibitory effect for PpIX produced from ALA in cells with gallic acids or other reductants (Example 1); assay type: cell-based; conditions: excitation 400 nm, fluorescence 635 nm; for photobleaching inhibitory effect for PpIX: 1 mM ALA 24 h, reductant in 50% glycerol PBS (NPG 2%, PPD 0.5%, DABCO 5%, Prolong Gold as sold), 0-180 s
Method: (§2) MKN45 cells were seeded in a 35 mm dish at 0.5×10^6 cells, and the culture medium on the 35 mm dish was 2 mL. Ten μL of 0.2 M ALA hydrochloride (5-aminolevulinic acid hydrochloride) solution was added to the 2 mL of culture medium in the 35 mm dish to achieve the final concentration of ALA in the culture medium at 1 mM. This 35 mm dish was cultured in a 5% CO2 incubator at 37° C. for 24 hours. The cells were then washed with 1 ml of PBS, 1 mL of each of the following reductant solutions (dissolved in 50% glycerol PBS solution) were added on ice, the cells were immediately scraped off with a cell scraper, and the cells were suspended by pipetting. The fluorescence intensity at 635 nm of each of these cell suspensions under the excitation light at 400 nm was measured. The fluorescence intensity was measured from 0 seconds post irradiation of excitation light for every 10 seconds until 180 seconds post irradiation. Not limited to Example 1, the measurement of fluorescence intensity was performed with irradiation of the excitation light even after the 0 seconds post irradiation of excitation light.
The following were employed at the following final concentrations as each reductant:
Paraphenylenediamine (hereinafter abbreviated as “PPD”): 0.5%
n-propyl gallate (hereinafter abbreviated as “NPG”): 2%
1-4-diazabicyclo[2.2.2]-octane (hereinafter abbreviated as “DABCO”): 5%
Prolong Gold™: approximately 1% as the active ingredient sodium azide
Since Prolong Gold (an anti-fade agent from Invitrogen) was sold as a solution containing approximately 1% of sodium azide, it was added directly as the commercially available solution without employing 50% glycerol/PBS to carry out the investigation.

PpIX in MKN45 cells [6] = experiment: PpIX fluorescence half-life in ALA-loaded cells with 1% NPG at varied excitation light intensity (Example 3); assay type: cell-based
Method: as §2
In a method similar to Example 1, 1 mL of 1% n-propyl gallic acid (NPG) solution was added, and the intensity of the excitation light was altered to 0.1 mA, 0.2 mA, 0.3 mA, and 0.4 mA to measure the fluorescence intensity.

[7] = Gly + PBS solution, fluorescence 627 nm

Compound	effect of inhibiting photobleaching of PpIX (PpIX in MKN45 cells [1])	fluorescence intensity of PpIX after 30 seconds and 60 seconds relative to 0 seconds ([2]; DMSO solution)	t/2 of PpIX fluorescence intensity ([2]; DMSO, fluorescence 632 nm)	t/2 of PpIX fluorescence intensity [2, 7]	fluorescence intensity of PpIX after 30 seconds and 60 seconds relative to 0 seconds ([2]; Gly+PBS solution)	photobleaching inhibitory effect for PpIX (PpIX in MKN45 cells [5])	other results
tocopherol	do not have the effect of inhibiting photobleaching; also recorded: no or almost no effect						
CCCCOC(=O)c1cc(O)c(O)c(O)c1 [BuG, butyl gallate]		only modestly reduced	533.2 s	385.1 s	only modestly reduced		solubility in Gly+PBS solution [3]: able to dissolve; solubility in DMSO ([3]; 0.3 mmol in 6 mL (50 mM) DMSO): able to dissolve; absorbance at around 400 nm [4]: found to have absorbance at around 400 nm
CCCCCCCCOC(=O)c1cc(O)c(O)c(O)c1 [OcG, octyl gallate]		only modestly reduced	239.0 s				solubility in Gly+PBS solution [3]: could not be dissolved
C1CN2CCN1CC2 [DABCO, 1-4-diazabicyclo[2.2.2]-octane]						insufficient; also recorded: no or almost no effect	
O=C1O[C@H]([C@@H](O)CO)C(O)=C1O [ascorbic acid]	do not have the effect of inhibiting photobleaching; also recorded: no or almost no effect						
COC(=O)c1cc(O)c(O)c(O)c1 [MeG, Methyl gallate]		only modestly reduced	239.0 s	346.6 s	only modestly reduced		
CC1=C[C@H](O)CC(C)(C)[C@H]1/C=C/C(C)=C/C=C/C(C)=C/C=C/C=C(C)/C=C/C=C(C)/C=C/C1=C(C)C[C@@H](O)CC1(C)C [lutein]	do not have the effect of inhibiting photobleaching						
CCCOC(=O)c1cc(O)c(O)c(O)c1 [NPG, n-propyl gallate]		only modestly reduced	231.0 s	239.0 s	only modestly reduced	superior photobleaching inhibitory effect was observed	fluorescence intensity after 180 seconds post irradiation, relative to control at 0 seconds (PpIX in MKN45 cells [5]; 1 mM ALA, NPG 2%): about half; duration of fluorescence in fluorescence microscope images (PpIX in MKN45 cells [6]; 1% NPG vs vehicle, 0, 1, 2, 3 minutes post irradiation (FIG. 4)): fluorescence was maintained for a longer duration; prolongation of half-life versus vehicle (PpIX in MKN45 cells [6]; excitation light 0.4 mA, NPG 1%): three folds
Nc1ccc(N)cc1 [PPD, Paraphenylenediamine]						a state of high fluorescence intensity as with NPG could not be maintained; also recorded: no or almost no effect	fluorescence intensity at 0 seconds post irradiation of excitation light (PpIX in MKN45 cells [5]; 1 mM ALA, PPD 0.5%): markedly reduced
